In ChEMBL document CHEMBL3608278 (J Med Chem, 2015):
pIC50: −log10 of the molar value.

Legend:
[1] = molecular target: T1, Potassium voltage-gated channel subfamily A member 3 (Homo sapiens, UniProt P22001); assay type: cell-based, CHO-K1
[2] = molecular target: T1, Potassium voltage-gated channel subfamily A member 3; assay: cell-based; parameters: species or system Blood
[3] = molecular target: T1, Potassium voltage-gated channel subfamily A member 3; parameters: species or system Blood

T1 sequence (P22001 whole entry): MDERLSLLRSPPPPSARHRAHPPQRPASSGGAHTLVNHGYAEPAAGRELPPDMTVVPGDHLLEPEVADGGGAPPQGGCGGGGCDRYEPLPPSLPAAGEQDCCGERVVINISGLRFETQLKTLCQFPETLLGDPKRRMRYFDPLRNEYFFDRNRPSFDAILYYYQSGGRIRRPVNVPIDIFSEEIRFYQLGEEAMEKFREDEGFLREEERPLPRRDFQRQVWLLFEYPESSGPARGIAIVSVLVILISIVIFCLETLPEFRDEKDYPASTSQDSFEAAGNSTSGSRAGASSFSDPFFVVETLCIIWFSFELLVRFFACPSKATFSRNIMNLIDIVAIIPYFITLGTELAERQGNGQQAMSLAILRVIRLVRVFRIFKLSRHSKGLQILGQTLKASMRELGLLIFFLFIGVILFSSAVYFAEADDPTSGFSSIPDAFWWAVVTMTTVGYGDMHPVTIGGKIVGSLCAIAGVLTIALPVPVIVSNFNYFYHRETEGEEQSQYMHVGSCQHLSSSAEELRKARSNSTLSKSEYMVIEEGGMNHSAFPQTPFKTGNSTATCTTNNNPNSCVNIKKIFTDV

pIC50 [1] | pIC50 [2] | pIC50 [3] | SMILES
< 8.48 | < 7.00 | < 7.00 | CC[C@H](C)[C@@H]1NC(=O)[C@@H](NC(=O)[C@H](CO)NC(=O)[C@@H](N)CCCNC(=N)N)CSSC[C@@H](C(=O)O)NC(=O)[C@H]([C@@H](C)O)NC(=O)CNC(=O)[C@@H]2CSSC[C@@H]3NC(=O)[C@H](CCC(N)=O)NC(=O)[C@H](Cc4ccccc4)NC(=O)[C@H](C)NC(=O)[C@H]([C@@H](C)O)NC(=O)[C@H](CSSC[C@H](NC(=O)[C@H](Cc4ccccc4)NC(=O)[C@H](CO)NC(=O)[C@H](CC(C)C)NC(=O)[C@H](CCCNC(=N)N)NC(=O)[C@H](CCC(=O)O)NC(=O)[C@H](CCCCN)NC(=O)[C@H](CCSC)NC(=O)[C@H](CO)NC(=O)[C@H](Cc4cnc[nH]4)NC(=O)[C@H](CCCCN)NC3=O)C(=O)N[C@@H](CCCNC(=N)N)C(=O)N[C@@H](CCCCN)C(=O)N[C@@H]([C@@H](C)O)C(=O)N2)NC(=O)[C@H](CCCNC(=N)N)NC(=O)[C@H](CO)NC(=O)[C@H](CCCCN)NC(=O)[C@@H]2CCCN2C(=O)[C@H]([C@@H](C)CC)NC(=O)[C@H]([C@@H](C)O)NC(=O)[C@H](CC(=O)O)NC1=O
9.61 | 9.31 | 9.17 | CC[C@H](C)[C@@H]1NC(=O)[C@@H](NC(=O)[C@H](CO)NC(=O)[C@@H](N)CCCNC(=N)N)CSSC[C@@H](C(=O)O)NC(=O)[C@H]([C@@H](C)O)NC(=O)CNC(=O)[C@@H]2CSSC[C@@H]3NC(=O)[C@H](CCC(N)=O)NC(=O)[C@H](Cc4ccccc4)NC(=O)[C@H](C)NC(=O)[C@H]([C@@H](C)O)NC(=O)[C@H](CSSC[C@H](NC(=O)[C@H](Cc4ccccc4)NC(=O)[C@H](CO)NC(=O)[C@H](CCC(=O)O)NC(=O)[C@H](CCCNC(=N)N)NC(=O)[C@H](Cc4ccc(O)cc4)NC(=O)[C@H](CCCCN)NC(=O)[C@H](CCSC)NC(=O)[C@H](CO)NC(=O)[C@H](Cc4cnc[nH]4)NC(=O)[C@H](CCCCN)NC3=O)C(=O)N[C@@H](CCCNC(=N)N)C(=O)N[C@@H](CCCCN)C(=O)N[C@@H]([C@@H](C)O)C(=O)N2)NC(=O)[C@H](CCCNC(=N)N)NC(=O)[C@H](CO)NC(=O)[C@H](CCCCN)NC(=O)[C@@H]2CCCN2C(=O)[C@H]([C@@H](C)CC)NC(=O)[C@H]([C@@H](C)O)NC(=O)[C@H](CC(=O)O)NC1=O
< 8.48 | 8.09 | 7.47 | CC[C@H](C)[C@@H]1NC(=O)[C@@H](NC(=O)[C@H](CO)NC(=O)[C@@H](N)CCCNC(=N)N)CSSC[C@@H](C(=O)O)NC(=O)[C@H]([C@@H](C)O)NC(=O)CNC(=O)[C@@H]2CSSC[C@@H]3NC(=O)[C@H](CCC(N)=O)NC(=O)[C@H](Cc4ccccc4)NC(=O)[C@H](C)NC(=O)[C@H]([C@@H](C)O)NC(=O)[C@H](CSSC[C@H](NC(=O)[C@H](CCC(=O)O)NC(=O)[C@H](CO)NC(=O)[C@H](CC(C)C)NC(=O)[C@H](CCCNC(=N)N)NC(=O)[C@H](Cc4ccc(O)cc4)NC(=O)[C@H](CCCCN)NC(=O)[C@H](CCSC)NC(=O)[C@H](CO)NC(=O)[C@H](Cc4cnc[nH]4)NC(=O)[C@H](CCCCN)NC3=O)C(=O)N[C@@H](CCCNC(=N)N)C(=O)N[C@@H](CCCCN)C(=O)N[C@@H]([C@@H](C)O)C(=O)N2)NC(=O)[C@H](CCCNC(=N)N)NC(=O)[C@H](CO)NC(=O)[C@H](CCCCN)NC(=O)[C@@H]2CCCN2C(=O)[C@H]([C@@H](C)CC)NC(=O)[C@H]([C@@H](C)O)NC(=O)[C@H](CC(=O)O)NC1=O
9.56 | 10.70 | 10.37 | CC[C@H](C)[C@@H]1NC(=O)[C@@H](NC(=O)[C@H](CO)NC(=O)[C@@H](N)CCCNC(=N)N)CSSC[C@@H](C(=O)O)NC(=O)[C@H]([C@@H](C)O)NC(=O)CNC(=O)[C@@H]2CSSC[C@@H]3NC(=O)[C@H](CCC(N)=O)NC(=O)[C@H](Cc4ccccc4)NC(=O)[C@H](C)NC(=O)[C@H]([C@@H](C)O)NC(=O)[C@H](CSSC[C@H](NC(=O)[C@H](Cc4ccccc4)NC(=O)[C@H](CO)NC(=O)[C@H](CC(C)C)NC(=O)[C@H](CCCNC(=N)N)NC(=O)[C@H](Cc4ccc(O)cc4)NC(=O)[C@H](CCCCN)NC(=O)[C@H](CCSC)NC(=O)[C@H](CO)NC(=O)[C@H](Cc4cnc[nH]4)NC(=O)[C@H](CCCCN)NC3=O)C(=O)N[C@@H](CCCNC(=N)N)C(=O)N[C@@H](CCC(=O)O)C(=O)N[C@@H]([C@@H](C)O)C(=O)N2)NC(=O)[C@H](CCCNC(=N)N)NC(=O)[C@H](CO)NC(=O)[C@H](CCCCN)NC(=O)[C@@H]2CCCN2C(=O)[C@H]([C@@H](C)CC)NC(=O)[C@H]([C@@H](C)O)NC(=O)[C@H](CC(=O)O)NC1=O
9.63 | 9.62 | 9.51 | CC[C@H](C)[C@@H]1NC(=O)[C@@H](NC(=O)[C@H](CO)NC(=O)[C@@H](N)CCCNC(=N)N)CSSC[C@@H](C(=O)O)NC(=O)[C@H]([C@@H](C)O)NC(=O)CNC(=O)[C@@H]2CSSC[C@@H]3NC(=O)[C@H](CCC(N)=O)NC(=O)[C@H](Cc4ccccc4)NC(=O)[C@H](C)NC(=O)[C@H]([C@@H](C)O)NC(=O)[C@H](CSSC[C@H](NC(=O)[C@H](Cc4ccccc4)NC(=O)[C@H](CO)NC(=O)[C@H](CC(C)C)NC(=O)[C@H](CCCNC(=N)N)NC(=O)[C@H](Cc4ccc(O)cc4)NC(=O)[C@H](CCCCN)NC(=O)[C@H](CCSC)NC(=O)[C@H](CO)NC(=O)[C@H](Cc4cnc[nH]4)NC(=O)[C@H](CCCCN)NC3=O)C(=O)N[C@@H](CCCNC(=N)N)C(=O)N[C@@H](CCCCN)C(=O)N[C@@H](CCC(=O)O)C(=O)N2)NC(=O)[C@H](CCCNC(=N)N)NC(=O)[C@H](CO)NC(=O)[C@H](CCCCN)NC(=O)[C@@H]2CCCN2C(=O)[C@H]([C@@H](C)CC)NC(=O)[C@H]([C@@H](C)O)NC(=O)[C@H](CC(=O)O)NC1=O
9.82 | 9.40 | 9.20 | CC[C@H](C)[C@@H]1NC(=O)[C@@H](NC(=O)[C@H](CO)NC(=O)[C@@H](N)CCCNC(=N)N)CSSC[C@@H](C(=O)O)NC(=O)[C@H]([C@@H](C)O)NC(=O)CNC(=O)[C@@H]2CSSC[C@@H]3NC(=O)[C@H](CCC(N)=O)NC(=O)[C@H](Cc4ccccc4)NC(=O)[C@H](C)NC(=O)[C@H](CCCNC(=N)N)NC(=O)[C@H](CSSC[C@H](NC(=O)[C@H](Cc4ccccc4)NC(=O)[C@H](CO)NC(=O)[C@H](CC(C)C)NC(=O)[C@H](CCCNC(=N)N)NC(=O)[C@H](Cc4ccc(O)cc4)NC(=O)[C@H](CCCCN)NC(=O)[C@H](CCSC)NC(=O)[C@H](CO)NC(=O)[C@H](Cc4cnc[nH]4)NC(=O)[C@H](CCCCN)NC3=O)C(=O)N[C@@H](CCCNC(=N)N)C(=O)N[C@@H](CCCCN)C(=O)N[C@@H]([C@@H](C)O)C(=O)N2)NC(=O)[C@H](CCCNC(=N)N)NC(=O)[C@H](CO)NC(=O)[C@H](CCCCN)NC(=O)[C@@H]2CCCN2C(=O)[C@H]([C@@H](C)CC)NC(=O)[C@H]([C@@H](C)O)NC(=O)[C@H](CC(=O)O)NC1=O

SMILES | pIC50 [1] | pIC50 [2] | pIC50 [3]
CC[C@H](C)[C@@H]1NC(=O)[C@@H](NC(=O)[C@H](CO)NC(=O)[C@@H](N)CCCNC(=N)N)CSSC[C@@H](C(=O)O)NC(=O)[C@H]([C@@H](C)O)NC(=O)CNC(=O)[C@@H]2CSSC[C@@H]3NC(=O)[C@H](CCC(N)=O)NC(=O)[C@H](Cc4ccccc4)NC(=O)[C@H](C)NC(=O)[C@H]([C@@H](C)O)NC(=O)[C@H](CSSC[C@H](NC(=O)[C@H](Cc4ccccc4)NC(=O)[C@H](CO)NC(=O)[C@H](CC(C)C)NC(=O)[C@H](CCCNC(=N)N)NC(=O)[C@H](Cc4ccc(O)cc4)NC(=O)[C@H](CCCCN)NC(=O)[C@H](CCSC)NC(=O)[C@H](CO)NC(=O)[C@H](Cc4cnc[nH]4)NC(=O)[C@H](CCCCN)NC3=O)C(=O)N[C@@H](CCCNC(=N)N)C(=O)N[C@@H](CCCCN)C(=O)N[C@@H]([C@@H](C)O)C(=O)N2)NC(=O)[C@H](CCCNC(=N)N)NC(=O)[C@H](CO)NC(=O)[C@H](CCCCN)NC(=O)[C@@H]2CCCN2C(=O)[C@H]([C@@H](C)CC)NC(=O)[C@H]([C@@H](C)O)NC(=O)[C@H](CCCNC(=N)N)NC1=O | < 8.48 | 7.39 | 7.04
CC[C@H](C)[C@@H]1NC(=O)[C@@H](NC(=O)[C@H](CO)NC(=O)[C@@H](N)CCCNC(=N)N)CSSC[C@@H](C(=O)O)NC(=O)[C@H]([C@@H](C)O)NC(=O)CNC(=O)[C@@H]2CSSC[C@@H]3NC(=O)[C@H](CCC(N)=O)NC(=O)[C@H](Cc4ccccc4)NC(=O)[C@H](C)NC(=O)[C@H]([C@@H](C)O)NC(=O)[C@H](CSSC[C@H](NC(=O)[C@H](Cc4ccccc4)NC(=O)[C@H](CO)NC(=O)[C@H](CC(C)C)NC(=O)[C@H](CCCNC(=N)N)NC(=O)[C@H](Cc4ccc(O)cc4)NC(=O)[C@H](CCCCN)NC(=O)[C@H](CCSC)NC(=O)[C@H](CO)NC(=O)[C@H](Cc4cnc[nH]4)NC(=O)[C@H](CCCCN)NC3=O)C(=O)N[C@@H](CCCNC(=N)N)C(=O)N[C@@H](CCCCN)C(=O)N[C@@H]([C@@H](C)O)C(=O)N2)NC(=O)[C@H](CCCNC(=N)N)NC(=O)[C@H](CO)NC(=O)[C@H](CCCCN)NC(=O)[C@H](CCCNC(=N)N)NC(=O)[C@H]([C@@H](C)CC)NC(=O)[C@H]([C@@H](C)O)NC(=O)[C@H](CC(=O)O)NC1=O | 9.35 | 9.60 | 8.98
CC[C@H](C)[C@@H]1NC(=O)[C@@H](NC(=O)[C@H](CO)NC(=O)[C@@H](N)CCCNC(=N)N)CSSC[C@@H](C(=O)O)NC(=O)[C@H]([C@@H](C)O)NC(=O)CNC(=O)[C@@H]2CSSC[C@@H]3NC(=O)[C@H](CCC(N)=O)NC(=O)[C@H](Cc4ccccc4)NC(=O)[C@H](C)NC(=O)[C@H]([C@@H](C)O)NC(=O)[C@H](CSSC[C@H](NC(=O)[C@H](Cc4ccccc4)NC(=O)[C@H](CO)NC(=O)[C@H](CC(C)C)NC(=O)[C@H](CCCNC(=N)N)NC(=O)[C@H](Cc4ccc(O)cc4)NC(=O)[C@H](CCCCN)NC(=O)[C@H](CCSC)NC(=O)[C@H](CO)NC(=O)[C@H](Cc4cnc[nH]4)NC(=O)[C@H](CCCCN)NC3=O)C(=O)N[C@@H](CCCNC(=N)N)C(=O)N[C@@H](CCCCN)C(=O)N[C@@H]([C@@H](C)O)C(=O)N2)NC(=O)[C@H](CCCNC(=N)N)NC(=O)[C@H](CCCNC(=N)N)NC(=O)[C@H](CCCCN)NC(=O)[C@@H]2CCCN2C(=O)[C@H]([C@@H](C)CC)NC(=O)[C@H]([C@@H](C)O)NC(=O)[C@H](CC(=O)O)NC1=O | 10.14 | 10.14 | 9.89
